Test results as given in ChEMBL document CHEMBL1201862, “PubChem BioAssay data set” (2004).
Activity calls are given as the source filed them.

What was measured:
[1] = A Cell Based Assay for the Identification of Probe candidate Compounds with Anti- Venezuelan Equine Encephalitis virus. [Related pubchem assays: 2409, 2419, 1621, 2238, 2405, 2024, 2065, 2402, 2414, 1635, 1650, 2244 ]; type: functional
Vero = assay: Vero cell viability after compound exposure – synthesized analogs, set II, cytotoxicity control for West Nile virus antiviral project, SAR follow-up (AID 2402); type: functional; details: Chlorocebus sabaeus
Bcl-2-like protein 10 = Bcl-2-like protein 10 (Homo sapiens, UniProt Q9HD36); assay: Concentration-response of Bcl-B inhibitors by biochemical FP with TR3 (AID 1243); type: functional
Sequence of Bcl-2-like protein 10 (Q9HD36 whole entry): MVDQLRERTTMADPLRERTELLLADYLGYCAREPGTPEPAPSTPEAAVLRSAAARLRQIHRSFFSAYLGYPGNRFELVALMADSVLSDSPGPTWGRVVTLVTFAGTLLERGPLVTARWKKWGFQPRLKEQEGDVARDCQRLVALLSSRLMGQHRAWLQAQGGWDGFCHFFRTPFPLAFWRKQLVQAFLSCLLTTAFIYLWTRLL

[2] = DRD fibroblast viability loss – cell-based, non-viral oncogenic, luminescence, dose response (AID 1934); type: functional; details: Homo sapiens
BJ [3] = assay: BJ-TERT-LT-ST fibroblast viability loss – cell-based, RAS-independent, luminescence, dose response (AID 1935); type: functional; details: Homo sapiens;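 note: BJ fibroblasts immortalized with TERT plus LT and ST oncogenes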
[4] = biological target: G2/mitotic-specific cyclin-B1 (Homo sapiens, UniProt P14635); assay: Counterscreen assay for inhibitors of Wee1 degradation: dose response cell-based assay to identify inhibitors of cyclin B degradation. [Related pubchem assays: 1410, 1321 ]; type: functional
Sequence of G2/mitotic-specific cyclin-B1 (P14635 whole entry): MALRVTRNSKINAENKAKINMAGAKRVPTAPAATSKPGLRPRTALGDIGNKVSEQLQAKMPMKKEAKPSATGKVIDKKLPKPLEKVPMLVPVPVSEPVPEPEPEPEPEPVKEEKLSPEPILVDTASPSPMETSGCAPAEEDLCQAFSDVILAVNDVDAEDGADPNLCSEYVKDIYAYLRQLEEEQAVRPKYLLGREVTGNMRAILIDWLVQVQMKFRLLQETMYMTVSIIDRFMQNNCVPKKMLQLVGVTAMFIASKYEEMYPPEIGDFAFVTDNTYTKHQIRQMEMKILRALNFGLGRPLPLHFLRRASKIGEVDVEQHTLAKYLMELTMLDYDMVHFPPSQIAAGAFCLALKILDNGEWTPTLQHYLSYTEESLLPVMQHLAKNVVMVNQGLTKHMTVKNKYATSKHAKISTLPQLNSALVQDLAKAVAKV

[5] = Luminescence Cell-Based Dose Retest to Confirm Inhibitors of Cancer Stem Cells. [Related pubchem assays (depositor defined):AID2717, AID2721]; type: functional; details: Homo sapiens
Wee1-like protein kinase = Wee1-like protein kinase (Homo sapiens, UniProt P30291); assay: Dose Response Cell-based Assay for Inhibitors of Wee1 Degradation. [Related pubchem assays: 1410, 1321 ]; type: functional
Sequence of Wee1-like protein kinase (P30291 whole entry): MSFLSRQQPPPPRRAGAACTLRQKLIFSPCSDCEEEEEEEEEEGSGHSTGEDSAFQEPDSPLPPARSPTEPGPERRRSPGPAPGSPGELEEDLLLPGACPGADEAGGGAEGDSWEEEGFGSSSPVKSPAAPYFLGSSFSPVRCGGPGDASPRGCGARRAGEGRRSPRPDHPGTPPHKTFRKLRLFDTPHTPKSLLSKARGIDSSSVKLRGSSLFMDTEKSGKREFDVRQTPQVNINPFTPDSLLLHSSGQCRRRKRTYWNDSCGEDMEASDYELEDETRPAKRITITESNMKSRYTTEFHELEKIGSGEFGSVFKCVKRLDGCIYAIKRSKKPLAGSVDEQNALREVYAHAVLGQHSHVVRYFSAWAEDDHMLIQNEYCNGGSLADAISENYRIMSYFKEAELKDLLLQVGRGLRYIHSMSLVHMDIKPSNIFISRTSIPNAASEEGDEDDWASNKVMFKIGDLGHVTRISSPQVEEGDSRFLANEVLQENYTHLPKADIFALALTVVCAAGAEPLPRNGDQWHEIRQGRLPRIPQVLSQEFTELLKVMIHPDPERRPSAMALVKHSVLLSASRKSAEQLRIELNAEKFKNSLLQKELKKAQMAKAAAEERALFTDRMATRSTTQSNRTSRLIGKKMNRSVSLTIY

BJ [6] = assay: cells; type: functional, cell-based; details: Homo sapiens
BJ [7] = assay: BJ-TERT fibroblast viability loss – cell-based, RAS-independent, luminescence, dose response (AID 1933); type: functional; details: Homo sapiens
[8] = biological target: Sphingosine 1-phosphate receptor 2 (Homo sapiens, UniProt O95136); assay: Dose Response Cell Based Assay for Agonists of the S1P2 Receptor of Purchased Analogues. [Related pubchem assays: 729, 843, 854, 736 ]; type: functional
Sequence of Sphingosine 1-phosphate receptor 2 (O95136 whole entry): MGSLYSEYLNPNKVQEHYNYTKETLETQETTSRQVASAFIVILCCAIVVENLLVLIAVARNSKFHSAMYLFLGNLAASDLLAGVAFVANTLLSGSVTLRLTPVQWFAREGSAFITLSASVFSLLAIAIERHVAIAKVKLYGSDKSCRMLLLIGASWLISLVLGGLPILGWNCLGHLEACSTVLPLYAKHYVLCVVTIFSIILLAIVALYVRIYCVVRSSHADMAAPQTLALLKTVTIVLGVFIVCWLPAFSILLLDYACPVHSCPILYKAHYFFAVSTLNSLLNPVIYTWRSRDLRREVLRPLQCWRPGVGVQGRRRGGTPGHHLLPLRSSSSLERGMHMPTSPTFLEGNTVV

[9] = Luminescence Cell-Based Dose-Confimation HTS to Identify Inhibitors of 5'UTR Stem-Loop Driven Alpha-Synuclein mRNA Translation in H4 Neuroglioblastoma Cells. [Related pubchem assays: 1827 (Project Summary), 1813 (Primary HTS)]; type: functional
cells [10] = type: functional, cell-based
[11] = viability loss of HPDE-C7K cells – cell-based, fluorescence, HTS, primary screen (AID 431); type: functional; details: Homo sapiens
[12] = biological target: Scavenger receptor class B member 1 (Mus musculus, UniProt Q61009); assay: mouse SR-BI DiI-HDL uptake blockers – ldlA[mSR-BI] cells, fluorescence, cherry pick, dose response (AID 493194); type: functional, cell-based;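 note: cellular uptake of fluorescent DiI-labeled HDL measured as cell fluorescence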
Sequence of Scavenger receptor class B member 1 (Q61009 whole entry): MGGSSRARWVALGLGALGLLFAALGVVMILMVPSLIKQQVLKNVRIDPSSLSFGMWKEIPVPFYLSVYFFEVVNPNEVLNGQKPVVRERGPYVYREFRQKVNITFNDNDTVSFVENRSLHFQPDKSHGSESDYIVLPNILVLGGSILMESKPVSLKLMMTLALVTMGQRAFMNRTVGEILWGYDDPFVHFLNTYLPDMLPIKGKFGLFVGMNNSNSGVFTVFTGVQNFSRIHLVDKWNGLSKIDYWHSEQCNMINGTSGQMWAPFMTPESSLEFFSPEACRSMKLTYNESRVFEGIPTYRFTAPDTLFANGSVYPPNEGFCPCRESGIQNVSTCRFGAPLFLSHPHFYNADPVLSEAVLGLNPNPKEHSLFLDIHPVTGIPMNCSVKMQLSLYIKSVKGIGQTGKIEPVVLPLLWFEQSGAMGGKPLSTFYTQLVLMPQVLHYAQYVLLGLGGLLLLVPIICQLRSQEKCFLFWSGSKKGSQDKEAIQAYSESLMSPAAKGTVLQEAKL

[13] = Luminescence Cell-Based Dose Response HTS to Identify Inhibitors of 5'UTR Stem-Loop Driven Prion Protein mRNA Translation in H4 Neuroglioblastoma Cells. [Related pubchem assays: 1827 (Project Summary), 1813 (Primary HTS)]; type: functional
Nonstructural protein 1 = Nonstructural protein 1 (Influenza A virus, UniProt Q194T2); type: functional, Influenza A virus (A/California/07/2009(H1N1))
Sequence of Nonstructural protein 1 (Q194T2 whole entry): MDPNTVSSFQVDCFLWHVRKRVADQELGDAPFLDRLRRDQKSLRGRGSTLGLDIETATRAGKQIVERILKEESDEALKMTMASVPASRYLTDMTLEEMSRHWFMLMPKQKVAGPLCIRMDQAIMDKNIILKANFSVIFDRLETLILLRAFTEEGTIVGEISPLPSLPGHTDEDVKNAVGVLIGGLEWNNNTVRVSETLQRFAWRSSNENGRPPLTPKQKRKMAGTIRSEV

cells [14] = type: functional, cell-based; remark: listed apart in the source
INS1 = assay: INS-1E survival protection against cytokine death – cell-based, luminescence, retest, dose response (AID 449756); type: functional; details: Rattus norvegicus;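 note: cell death triggered by IL-1 beta plus TNF-alpha plus IFN-gamma mixture; protective hits raise ATP signal compared with cytokine alone wells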
[15] = HPDE-C7 pancreatic duct cell viability loss – fluorescence, HTS (AID 430); type: functional, cell-based; details: Homo sapiens
[16] = bead-based luminescence quenchers, dual-tagged ARNT – biochemical, AlphaScreen, cherry-pick, artefact control for ARNT-TACC3 interaction inhibitor project, dose response (AID 651705); type: functional;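 note: AlphaScreen bead proximity signal that flags compounds interfering with the detection technology; potency reflects signal decrease which marks the compound as an assay artifact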
[17] = luciferase reporter signal suppression in cells – H4 neuroglioma cells, luminescence, dose response (AID 1990); type: functional, cell-based
[18] = mitochondrial function rescue without frataxin homolog – Friedreich's ataxia, plus single-dose screen, dose response (AID 1465); type: functional;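 note: yeast depleted of Yfh1p frataxin homolog grown on glycerol needing respiration; WST-1 tetrazolium dye reduction as measure of cellular dehydrogenase metabolic activity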
[19] = alpha-synuclein stem-loop luciferase translation blockers – H4 neuroglioma cells, luminescence, confirmation (AID 1988); type: functional, cell-based

In the case of COc1ccc(Cn2nc(C)cc2OC(=O)c2c(F)cccc2F)cc1, the IC50 [1] is reported as > 133 µM (active) and the CC50 (Vero) is reported as > 200 µM (active).
In the case of Cc1c(Cl)ccc2c1NC(C(=O)O)C1CC=CC21 (centres undefined), the EC50 (Bcl-2-like protein 10) is reported as 5.21 µM (active).
In the case of Cc1ccc(/C=N/NC(=O)c2ccc3c(c2)OCCO3)s1, the EC50 [2] is reported as 17.9 µM (active), the EC50 (BJ [3]) is reported as > 150 µM (inconclusive) and the EC50 [4] is reported as > 49.7 µM (not active). For the same molecule, the AC50 [5] was 1.48 µM (active), the EC50 (Wee1-like protein kinase) was > 49.7 µM (not active) and the EC50 (BJ [6]) was 140 µM (active). The EC50 (BJ [7]) was 12.4 µM (active).
In the case of Cc1cc(C(=O)COC(=O)CCS(=O)(=O)c2ccccc2)c(C)n1Cc1ccccc1, the EC50 [8] is reported as > 30 µM (not active).
In the case of CC(C)c1ccc(-n2nnnc2SCc2nc(N)nc(N)n2)cc1, the EC50 [9] is reported as > 100 µM (not active).
With O=C(Nc1nc(NC(=O)c2ccco2)n(-c2ccccc2)n1)c1ccccc1 the EC50 (cells [10]) was > 350 µM (not active), the EC50 [11] was 6.1 µM (active) and the AC50 [12] was 13.4 µM (active). The EC50 [13] was 5.2 µM (active), the IC50 (Nonstructural protein 1) was 85.9 µM (active) and the EC50 (cells [14]) was > 350 µM (not active). For the same molecule, the AC50 (INS1) was 2.96 µM (active), the EC50 [15] was 3.73 µM (active) and the AC50 [16] was 127 µM (active). For the same molecule, the EC50 [17] was 10 µM (active), the EC50 [18] was > 100 µM (active) and the EC50 [19] was 7.85 µM (active).
